Source: patent publication US10696639B2, “Heterocyclic compounds as HIV protease inhibitors” (Merck Sharp & Dohme Corp., priority 2016, dated 2020)
pIC50: −log10 of the molar value.

The compounds below were run against T1, wild-type HIV-1 protease (Human immunodeficiency virus type 1 group M subtype B, UniProt P04585) (assay: Assay for Inhibition of Microbial Expressed HIV Protease). Conditions: E. coli expressed wild-type HIV-1 protease, peptide substrate cleavage, LC-MS readout; mean of at least two independent experiments; read-out: HIV Pr Enzyme HIV1 PR IC50.
T1 construct: Escherichia coli expressed wild-type HIV-1 protease protein; made in house; host or cells: Escherichia coli
Type: biochemical
Method: Assay for Inhibition of Microbial Expressed HIV Protease
Inhibition of Escherichia coli expressed wild-type HIV-1 protease protein was carried out with a peptide substrate [Val-Ser-Gln-Asn-(βnaphtyl)Ala-Pro-Ile-Val]. The inhibitor compound was preincubated with HIV-1 protease enzyme in assay buffer (50 mM sodium acetate, pH 5.5, 100 mM NaCl, and 0.1% BSA) for 30 minutes at room temperature. Peptide substrate was added to […] in a total volume of 20 μL containing 20 pM HIV-1 protease (final) after which the reaction was incubated for 1 hour at 30° C. The reaction was quenched by the addition of formic acid and HIV protease inhibitor indinavir to 0.012% and 150 nM final concentrations, respectively. Product formation was determined after separation of product and substrate on a ZORBAX Eclipse XDB-C18 column (Aligent Technologies, Santa Clara, Calif., USA) connected to an API 4000™ mass spectrometer (AB Sciex, Pte. Ltd., Concord Ontario, Canada) with multiple reaction monitoring (transitions were 644.5/428.9 and 615.4/422.2 (M1/M3) for product and indinavir respectively). The extent of inhibition of the reaction was determined from the peak area of the products. Analysis of the products, independently synthesized, provided quantitation standards and confirmation of the product composition.

SMILES	pIC50
COC(=O)N[C@@H](Cc1ccc(OC)cc1)C(=O)N[C@@H](C)CCCN1C(=N)N[C@](CC(C)C)(c2ccccc2)C1=O [Example 1, N-{(1S)-4-[(4R)-2-imino-4-(2-methylpropyl)-5-oxo-4-phenylimidazolidin-1-yl]-1-methylbutyl}-N-alpha-(methoxycarbonyl)-O-methyl-L-tyrosinamide]	7.74
N=C1NC(c2ccccc2)(c2ccccc2)C(=O)N1CCCCNC(=O)[C@@H](N)Cc1ccccc1 [Example 2, N-[4-(2-imino-5-oxo-4,4-diphenylimidazolidin-1-yl)butyl]-L-phenylalaninamide]	7.96
CC(=O)N[C@@H](Cc1ccccc1)C(=O)NCCCCN1C(=N)NC(c2ccccc2)(c2ccccc2)C1=O [Example 3, N-alpha-acetyl-N-[4-(2-imino-5-oxo-4,4-diphenylimidazolidin-1-yl)butyl]-L-phenylalaninamide]	8.10
COC(=O)N[C@@H](Cc1ccccc1)C(=O)NCCCCN1C(=N)NC(c2ccccc2)(c2ccccc2)C1=O [Example 4, N-[4-(2-imino-5-oxo-4,4-diphenylimidazolidin-1-yl)butyl]-N-alpha-(methoxycarbonyl)-L-phenylalaninamide]	8.00
N=C1NC(c2ccccc2)(c2ccccc2)C(=O)N1CCCCNC(=O)[C@@H](N)CCc1ccccc1 [Example 5, (2S)-2-amino-N-[4-(2-imino-5-oxo-4,4-diphenylimidazolidin-1-yl)butyl]-4-phenylbutanamide]	8.22
CCOC(=O)N[C@@H](Cc1ccccc1)C(=O)NCCCCN1C(=N)NC(c2ccccc2)(c2ccccc2)C1=O [Example 6, N-alpha-(ethoxycarbonyl)-N-[4-(2-imino-5-oxo-4,4-diphenylimidazolidin-1-yl)butyl]-L-phenylalaninamide]	8.40
COC(=O)N[C@@H](Cc1ccccc1)C(=O)N[C@@H](C)CCCN1C(=N)NC(c2ccccc2)(c2ccccc2)C1=O [Example 7, N-[(1S)-4-(2-imino-5-oxo-4,4-diphenylimidazolidin-1-yl)-1-methylbutyl]-N-alpha-(methoxycarbonyl)-L-phenylalaninamide]	8.70
COC(=O)N[C@@H](Cc1cccnc1)C(=O)NCCCCN1C(=N)NC(c2ccccc2)(c2ccccc2)C1=O [Example 8, methyl [(1S)-2-{[4-(2-imino-5-oxo-4,4-diphenylimidazolidin-1-yl)butyl]amino}-2-oxo-1-(pyridin-3-ylmethyl)ethyl]carbamate]	7.92
N=C1NC(c2ccccc2)(c2ccccc2)C(=O)N1CCCCNC(=O)[C@@H](N)Cc1cccnc1 [Example 9, N-[4-(2-imino-5-oxo-4,4-diphenylimidazolidin-1-yl)butyl]-3-pyridin-3-yl-L-alaninamide]	7.51
N=C1NC(c2ccccc2)(c2ccccc2)C(=O)N1CCCCNC(=O)[C@@H](N)Cc1ccncc1 [Example 10, N-[4-(2-imino-5-oxo-4,4-diphenylimidazolidin-1-yl)butyl]-3-pyridin-4-yl-L-alaninamide]	7.47
COC(=O)N[C@@H](Cc1ccccc1)C(=O)N[C@@H](C)CCCN1C(=N)NC(c2ccc(F)cc2)(c2ccc(F)cc2)C1=O [Example 11, N-{(1S)-4-[4,4-bis(4-fluorophenyl)-2-imino-5-oxoimidazolidin-1-yl]-1-methylbutyl}-N-alpha-(methoxycarbonyl)-L-phenylalaninamide]	8.15
COC(=O)N[C@@H](Cc1ccccn1)C(=O)NCCCCN1C(=N)NC(c2ccccc2)(c2ccccc2)C1=O [Example 12, methyl [(1S)-2-{[4-(2-imino-5-oxo-4,4-diphenylimidazolidin-1-yl)butyl]amino}-2-oxo-1-(pyridin-2-ylmethyl)ethyl]carbamate]	7.68
COC(=O)N[C@@H](Cc1ccncc1)C(=O)NCCCCN1C(=N)NC(c2ccccc2)(c2ccccc2)C1=O [Example 13, methyl [(1S)-2-{[4-(2-imino-5-oxo-4,4-diphenylimidazolidin-1-yl)butyl]amino}-2-oxo-1-(pyridin-4-ylmethyl)ethyl]carbamate]	8.15
N=C1NC(c2ccccc2)(c2ccccc2)C(=O)N1CCCCCNC(=O)[C@@H](N)Cc1ccccc1 [Example 14, N-[5-(2-imino-5-oxo-4,4-diphenylimidazolidin-1-yl)pentyl]-L-phenylalaninamide]	7.17
COC(=O)N[C@@H](Cc1ccccc1)C(=O)NCCCCCN1C(=N)NC(c2ccccc2)(c2ccccc2)C1=O [Example 15, N-[5-(2-imino-5-oxo-4,4-diphenylimidazolidin-1-yl)pentyl]-N-alpha-(methoxycarbonyl)-L-phenylalaninamide]	7.01
CC(C)CC1(c2ccccc2)NC(=N)N(CCCCNC(=O)[C@@H](N)Cc2ccccc2)C1=O (stereo partly drawn) [Example 16, N-{4-[2-imino-4-(2-methylpropyl)-5-oxo-4-phenylimidazolidin-1-yl]butyl}-L-phenylalaninamide]	7.72
COC(=O)N[C@@H](Cc1ccccc1)C(=O)NCCCCN1C(=N)NC(CC(C)C)(c2ccccc2)C1=O (stereo partly drawn) [Example 17, N-{4-[2-imino-4-(2-methylpropyl)-5-oxo-4-phenylimidazolidin-1-yl]butyl}-N-alpha-(methoxycarbonyl)-L-phenylalaninamide]	7.70
CC(C)CCC1(c2ccccc2)NC(=N)N(CCCCNC(=O)[C@@H](N)Cc2ccccc2)C1=O (stereo partly drawn) [Example 18, N-{4-[2-imino-4-(3-methylbutyl)-5-oxo-4-phenylimidazolidin-1-yl]butyl}-L-phenylalaninamide]	7.60
COC(=O)N[C@@H](Cc1ccccc1)C(=O)NCCCCN1C(=N)NC(CCC(C)C)(c2ccccc2)C1=O (stereo partly drawn) [Example 19, N-{4-[2-imino-4-(3-methylbutyl)-5-oxo-4-phenylimidazolidin-1-yl]butyl}-N-alpha-(methoxycarbonyl)-L-phenylalaninamide]	7.62
COC(=O)N[C@@H](Cc1ccncc1)C(=O)NCCCCCN1C(=N)NC(c2ccccc2)(c2ccccc2)C1=O [Example 20, methyl [(1S)-2-{[5-(2-imino-5-oxo-4,4-diphenylimidazolidin-1-yl)pentyl]amino}-2-oxo-1-(pyridin-4-ylmethyl)ethyl]carbamate]	7.04
COC(=O)N[C@@H](Cc1ccncc1)C(=O)NCCCCN1C(=N)NC(CC(C)C)(c2ccccc2)C1=O (stereo partly drawn) [Example 21, methyl [(1S)-2-({4-[2-imino-4-(2-methylpropyl)-5-oxo-4-phenylimidazolidin-1-yl]butyl}amino)-2-oxo-1-(pyridin-4-ylmethyl)ethyl]carbamate]	7.34
COC(=O)N[C@@H](Cc1ccncc1)C(=O)NCCCCN1C(=N)NC(CCC(C)C)(c2ccccc2)C1=O (stereo partly drawn) [Example 22, methyl [(1S)-2-({4-[2-imino-4-(3-methylbutyl)-5-oxo-4-phenylimidazolidin-1-yl]butyl}amino)-2-oxo-1-(pyridin-4-ylmethyl)ethyl]carbamate]	7.22
CC1(OC(=O)N[C@@H](Cc2ccccc2)C(=O)NCCCCN2C(=N)NC(c3ccccc3)(c3ccccc3)C2=O)CC1 [Example 23, N-[4-(2-imino-5-oxo-4,4-diphenylimidazolidin-1-yl)butyl]-N-alpha-{[(1-methylcyclopropyl)oxy]carbonyl}-L-phenylalaninamide]	7.80
N#Cc1cccc(C[C@H](N)C(=O)NCCCCN2C(=N)NC(c3ccccc3)(c3ccccc3)C2=O)c1 [Example 24, 3-cyano-N-[4-(2-imino-5-oxo-4,4-diphenylimidazolidin-1-yl)butyl]-L-phenylalaninamide]	7.66
COC(=O)N[C@@H](Cc1ccc(F)cc1)C(=O)NCCCCN1C(=N)NC(c2ccccc2)(c2ccccc2)C1=O [Example 25, 4-fluoro-N-[4-(2-imino-5-oxo-4,4-diphenylimidazolidin-1-yl)butyl]-N-alpha-(methoxycarbonyl)-L-phenylalaninamide]	7.77
CC(C)OC(=O)N[C@@H](Cc1ccccc1)C(=O)NCCCCN1C(=N)NC(c2ccccc2)(c2ccccc2)C1=O [Example 26, N-[4-(2-imino-5-oxo-4,4-diphenylimidazolidin-1-yl)butyl]-N-alpha-[(1-methylethoxy)carbonyl]-L-phenylalaninamide]	7.57
COC(=O)N[C@@H](Cc1ccc(F)cc1)C(=O)N[C@@H](C)CCCN1C(=N)N[C@](CC(C)C)(c2ccccc2)C1=O [Example 27, 4-fluoro-N-{(1S)-4-[(4R)-2-imino-4-(2-methylpropyl)-5-oxo-4-phenylimidazolidin-1-yl]-1-methylbutyl}-N-alpha-(methoxycarbonyl)-L-phenylalaninamide]	7.57
COC(=O)N[C@@H](Cc1ccccc1)C(=O)N[C@@H](C)CCCN1C(=N)N[C@](CC(C)C)(c2ccccc2)C1=O [Example 28, N-{(1S)-4-[(4R)-2-imino-4-(2-methylpropyl)-5-oxo-4-phenylimidazolidin-1-yl]-1-methylbutyl}-N-alpha-(methoxycarbonyl)-L-phenylalaninamide]	8.05
COC(=O)N[C@@H](Cc1ccccc1)C(=O)NC(CCCN1C(=N)N[C@](CC(C)C)(c2ccccc2)C1=O)CC1CC1 (stereo partly drawn) [Example 29, N-{1-(cyclopropylmethyl)-4-[(4R)-2-imino-4-(2-methylpropyl)-5-oxo-4-phenylimidazolidin-1-yl]butyl}-N-alpha-(methoxycarbonyl)-L-phenylalaninamide]	7.48
